# Assay results: article PMC12349723, “Computationally accelerated identification of P-glycoprotein inhibitors” (PLOS One, 2025)
# Where “and” joins values, the source holds several entries; their conditions need not be identical. Equal entries are not always repeated. Where two headings read alike, the source gives them in different places.
# How the values were obtained:
# [1] = test system: A2780-ADR cells; experiment: MTT viability assay, reversal of MDR in P-gp overexpressing A2780-ADR cells; type: cell-based, human; conditions: for Reversal of MDR in A2780-ADR cells: 15 µM compound with or without 500 nM PTX, 48 h, MTT
# Experimental: The chemotherapeutic sensitive DU145 human prostate cancer cells and the multidrug resistant sub-line, DU145-TXR, were generous gifts from Dr. Evan Keller (University of Michigan, Ann Arbor, MI). The MDR, P-gp overexpressing DU145-TXR cells were maintained under positive selection pressure by supplementing complete medium with 10 nM paclitaxel (Acros Organics, NJ). In addition to the aforementioned cell lines, the chemotherapeutic sensitive A2780 ovarian cancer cells (93112519, Sigma) and the multidrug resistant A2780-ADR (93112520, Sigma) were maintained in complete RPMI media consisting of RPMI-1640 with L-glutamine, 10% fetal bovine serum (FBS; Corning), 100 U/mL penicillin and 100 μg/mL streptomycin in a humidified incubator at 37 °C and 5% CO2. The MDR, P-gp overexpressing A2780-ADR cell line was maintained under positive selection pressure by supplementing complete medium with 100 nM doxorubicin (Fisher Scientific, NJ). The non-cancerous HFL1 (human lung fibroblast) cell line cell line was a generous gift from Dr. Robert Harrod (Southern Methodist University, Dallas, TX) and was maintained in complete F12K media consisting of F12K with 10% fetal bovine serum, 100 U/mL penicillin, and 100 µg/mL streptomycin (Gibco). Flasks and 96 well plates that were used with the non-cancerous line HFL1 were pre-treated with 0.1 mg/ml Collagen Type 1 (Gibco) and rinsed with PBS (Fisher).
# Culture of the DU145, DU145-TXR, and HFL1 cell lines was performed as described in [8]. Culture of the A2780 and A2780-ADR cell lines was performed as described in [9]. MTT assays were performed as described in [8] with minor modifications. LC-MS/MS accumulation assays were performed as described in {Nanayakkara, 2018 #173} [9] with some modifications. […] The inhibitor concentration was lowered to 15 µM here, as the goal of the study was to identify compounds that were effective in reversing MDR at low concentrations, and to determine if the expanded virtual-assisted methods improved on our first-draft attempt. Compounds 56–98 were pre-screened using Resazurin cell viability assays: cells were incubated with 15 µM compound with or without 500 nM PTX for 48 hours, after which cell survival was assessed similar to [39]. Data represent the mean of two separate experiments, with n = 3 samples per experiment (n = 6 total) (S4 Table). The top performing compounds from this initial screen were re-tested with MTT viability assays against DU145-TXR cells, as described below.
# MTT assays measure the reduction of yellow, water soluble 3-(4,5-dimethylthiazol-2-yl)-2,5-diphenyltetrazolium bromide (MTT) to blue, insoluble formazan crystals by cellular reductase processes in living cells. Cells were trypsinized from monolayers and seeded in complete medium in 96 well plates. Cancerous cell lines (DU145, DU145-TXR, A2780, A2780-ADR) were seeded at 3,000 cells per well in complete RPMI medium. The non-cancerous HFL1 line was seeded at 4,000 cells per well in complete F12K medium, in collagen-treated plates (Collagen Type 1, Gibco). Cells were incubated with experimental compounds for 48 hours at 37 °C and 5% CO2 in a humidified incubator. At 48 hours, MTT was added (20 µL/well of 5 mg/mL MTT in PBS) to each well. After incubation for 4 hours, the media was removed, and the formazan crystals were dissolved in 100 µL DMSO per well. Plates containing the semi-adherent A2780 or A2780-ADR lines were spun at 1400 rpm for 3 minutes prior to aspiration of media, and the addition of DMSO. Plates were shaken for 10 minutes at 500 rpm on an Orbital shaker (LabDoctor from MidSci, St Louis, MO). The absorbance was measured at 570 nm using a Bio-Tek Cytation 5 (Bio-Tek, Winooski, VT). The measured absorbance value was correlated with the number of metabolically active cells in that well, corrected for absorbance of media. […]
# [2] = SWISS-ADME computational analysis of chemical properties; conditions: predicted aqueous solubility compared to that observed in the laboratory
# Source text: (§1) Identifying P-gp inhibitors that are not transport substrates remains inherently challenging. To that end, computational tools such as the SWISS-ADME server attempt to use a molecule’s unique chemical and structural characteristics to predict whether it is likely to be a P-gp transport substrate. Our LC-MS/MS assays allowed us to retroactively test the validity of predictions from SWISS-ADME. […] Alternative identifiers for the molecules identified in this study are shown in S7 Table.
# (§2) S1 Table. Known P-gp Inhibitors and Predicted Chemical Properties. A non-exhaustive list of known P-gp inhibitors and their selected chemical properties ^[64, 65]. Clinical trial outcomes were adapted from ^[10, 11]. Compounds were evaluated using the SWISS-ADME server ^[54]. […] “Predicted P-gp Substrate” - predicted by SWISS-ADME to be a transport substrate of P-gp. “Known P-gp Substrate” – In addition to being P-gp inhibitors, these molecules are: known transport substrates of P-gp, known non-transport substrates of P-gp, unknown whether it is a transport substrate of P-gp ^[66-68]. If the molecule is designated in a specific generation of P-gp inhibitors - First Generation P-gp inhibitors, Second generation P-gp inhibitors, Third generation P-gp inhibitors.
# [3] = target: T1, P-gp (Homo sapiens, UniProt P08183); experiment: Top Hit classification from combined in vitro criteria; conditions: reverse MDR, do not increase PTX toxicity in chemo-sensitive cancer cells, non-toxic to noncancerous cells, not P-gp substrates
# T1 construct: The MDR, P-gp overexpressing DU145-TXR cells were maintained under positive selection pressure; endogenous in cells; host or cells: DU145-TXR (paclitaxel-resistant sub-line of DU145 human prostate cancer cells)
# T1 sequence (P08183 whole entry): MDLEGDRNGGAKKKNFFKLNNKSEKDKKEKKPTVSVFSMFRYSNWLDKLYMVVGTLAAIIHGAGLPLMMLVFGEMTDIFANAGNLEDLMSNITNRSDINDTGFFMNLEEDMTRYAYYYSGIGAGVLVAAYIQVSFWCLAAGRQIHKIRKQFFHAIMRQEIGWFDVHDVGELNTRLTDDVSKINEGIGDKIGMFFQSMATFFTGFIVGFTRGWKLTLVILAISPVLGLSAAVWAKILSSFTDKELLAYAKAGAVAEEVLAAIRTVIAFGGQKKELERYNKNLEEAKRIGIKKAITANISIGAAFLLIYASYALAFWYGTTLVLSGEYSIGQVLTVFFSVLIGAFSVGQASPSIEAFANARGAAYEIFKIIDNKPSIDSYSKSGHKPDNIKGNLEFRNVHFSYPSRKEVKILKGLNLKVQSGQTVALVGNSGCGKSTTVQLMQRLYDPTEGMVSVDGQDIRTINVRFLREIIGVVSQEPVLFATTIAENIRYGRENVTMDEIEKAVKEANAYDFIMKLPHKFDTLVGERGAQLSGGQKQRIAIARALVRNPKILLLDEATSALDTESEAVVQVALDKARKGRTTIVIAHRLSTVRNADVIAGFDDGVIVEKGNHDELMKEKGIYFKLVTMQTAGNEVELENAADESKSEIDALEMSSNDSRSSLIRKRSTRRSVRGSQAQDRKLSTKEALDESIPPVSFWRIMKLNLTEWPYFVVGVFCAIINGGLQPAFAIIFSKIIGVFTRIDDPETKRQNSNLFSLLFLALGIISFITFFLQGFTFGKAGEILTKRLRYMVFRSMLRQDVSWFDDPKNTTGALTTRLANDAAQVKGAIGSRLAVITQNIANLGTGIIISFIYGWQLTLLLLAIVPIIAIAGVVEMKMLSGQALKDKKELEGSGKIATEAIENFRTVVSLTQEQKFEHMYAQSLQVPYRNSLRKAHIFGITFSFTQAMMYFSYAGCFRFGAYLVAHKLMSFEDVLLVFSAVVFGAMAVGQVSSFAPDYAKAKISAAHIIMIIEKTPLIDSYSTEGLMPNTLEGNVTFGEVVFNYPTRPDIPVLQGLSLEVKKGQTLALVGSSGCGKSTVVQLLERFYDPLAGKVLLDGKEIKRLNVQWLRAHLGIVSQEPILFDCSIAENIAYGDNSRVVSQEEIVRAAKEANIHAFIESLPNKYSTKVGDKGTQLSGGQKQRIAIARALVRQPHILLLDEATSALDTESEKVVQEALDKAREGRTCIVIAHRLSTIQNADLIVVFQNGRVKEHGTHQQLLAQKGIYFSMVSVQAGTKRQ
# [4] = test system: P-gp; experiment: SWISS-ADME prediction of P-gp transport substrate; conditions: prediction compared to the LC-MS/MS intracellular accumulation data
# Source text: as §1, §2
# [5] = A2780-ADR cells, 15 µM compound + 500 nM PTX, mean of 12 samples
# [6] = A2780-ADR cells, 15 µM compound alone, single samples (trials 1-3, samples 1-4)
# [7] = Homo sapiens, A2780 ADR, A2780-ADR cells, 15 µM compound alone, mean of 12 samples, read-out: Mean % Survival
# [8] = Homo sapiens, A2780 ADR, A2780-ADR cells, 15 µM compound alone, single samples (trials 1-3, samples 1-4), read-out: % Survival (individual sample)
# [9] = A2780-ADR cells, 15 µM compound + 500 nM PTX, single samples (trials 1-3, samples 1-4)
# [10] = A2780-ADR cells, 1 µM compound + 500 nM PTX, mean of 12 samples
SMILES,"Mean % Survival [1, 5] [%]","% Survival (individual sample) [1, 6]","viability at 15 µM [1, 7] [%]","viability at 15 µM [1, 8] [%]",Correct Water Solubility Prediction? [2],Top Hit [3],Correct P-gp Substrate Prediction? [4],Reversal of MDR in A2780-ADR cells [1],"% Survival (individual sample) [1, 9]","Mean % Survival [1, 10] [%]","% Survival (individual sample) ([1]; A2780-ADR cells, 1 µM compound + 500 nM PTX, single samples (trials 1-3, samples 1-4))","Mean % Survival ([1]; A2780-ADR cells, 1 µM compound alone, mean of 12 samples) [%]","% Survival (individual sample) ([1]; A2780-ADR cells, 1 µM compound alone, single samples (trials 1-3, samples 1-4))","% Survival (individual sample) ([1]; A2780-ADR cells, 1 µM compound + 500 nM PTX, single samples (trials 1-3, samples 1-4), listed as TQR)","viability at 1 µM ([1]; Homo sapiens, A2780 ADR, A2780-ADR cells, 1 µM compound alone, mean of 12 samples, read-out: Mean % Survival) [%]"
"Cn1cnnc1SCc1c(C(=O)O)nnn1-c1nonc1N [Compound 59, Cn1cnnc1SCc1c(nnn1-c1nonc1N)C(O)=O]",83.9,98% and 96%,93.1,95,Yes,No,–,–,–,–,–,–,–,–,–
"Nc1nonc1-n1nnc(C(=O)N/N=C/c2c3ccccc3cc3ccccc23)c1COc1ccc(F)cc1 [Compound 60, Nc1nonc1-n1nnc(C(=O)N\N=C\c2c3ccccc3cc3ccccc23)c1COc1ccc(F)cc1]",–,–,–,–,No,No,No,–,–,–,–,–,–,–,–
"CCN1CCN(Cc2c(C(=O)N/N=C3/C(=O)N(C)c4ccccc43)nnn2-c2nonc2N)CC1 [Compound 61, CCN1CCN(Cc2c(nnn2-c2nonc2N)C(=O)N\N=C2\C(=O)N(C)c3ccccc23)CC1]",–,–,–,–,No,No,Yes,–,–,–,–,–,–,–,–
"O=C(c1cc2ccccc2[nH]1)N1CCN(S(=O)(=O)c2cccc3nonc23)CC1 [Compound 66, O=C(N1CCN(CC1)S(=O)(=O)c1cccc2nonc12)c1cc2ccccc2[nH]1]",–,–,–,–,Yes,No,No,–,–,–,–,–,–,–,–
"O=C(c1nc(-c2ccc3cc[nH]c3c2)no1)N1CCN(c2nsc3ccccc23)CC1 [Compound 70, O=C(N1CCN(CC1)c1nsc2ccccc12)c1nc(no1)-c1ccc2cc[nH]c2c1]",62.6,116%,114,–,Yes,Yes,No,reversed MDR in A2780-ADR cells,62% and 59% and 61%,–,–,–,–,–,–
"COc1ccc(OC)c(NC(=O)c2nnn(-c3ccc4noc(-c5ccccc5)c4c3)c2C)c1 [Compound 71, COc1ccc(OC)c(NC(=O)c2nnn(c2C)-c2ccc3noc(-c4ccccc4)c3c2)c1]",–,–,–,–,Yes,No,No,–,–,–,–,–,–,–,–
"Cc1onc(-c2ccccc2)c1-c1nnc(Cn2cnc3c(oc4ccccc43)c2=O)o1 [Compound 78, Cc1onc(c1-c1nnc(Cn2cnc3c4ccccc4oc3c2=O)o1)-c1ccccc1]",41.5,81% and 88%,82.7,–,Yes,Yes,No,reversed MDR in A2780-ADR cells,48% and 26%,–,–,–,–,–,–
"NS(=O)(=O)c1cccc(NC(=O)CSc2nnnn2C2CC2)c1 [Compound 89, NS(=O)(=O)c1cccc(NC(=O)CSc2nnnn2C2CC2)c1]",74.6,90% and 86%,89.9,91,Yes,No,–,–,54%,–,–,–,–,–,–
"O=S(=O)(CCSc1nnc(-c2ccccc2)c2ccccc12)c1ccccc1 [Compound 96, O=S(=O)(CCSc1nnc(-c2ccccc2)c2ccccc12)c1ccccc1]",68.8,97%,105,–,No,Yes,Yes,reversed MDR in A2780-ADR cells,58%,–,–,–,–,–,–
"O=S(=O)(Cc1nc2ccccc2n1CC(O)c1ccc(Cl)cc1)c1ccccc1 (centres unmarked) [Compound 97, OC(Cn1c(CS(=O)(=O)c2ccccc2)nc2ccccc12)c1ccc(Cl)cc1]",44.3,–,92.5,–,Yes,Yes,Yes,reversed MDR in A2780-ADR cells,47% and 29%,–,–,–,–,–,–
"COc1cccc(N2CCN(c3ccc4nnc(CCC(=O)Nc5ccc(F)c(F)c5)n4n3)CC2)c1 [Compound 101, COc1cccc(c1)N1CCN(CC1)c1ccc2nnc(CCC(=O)Nc3ccc(F)c(F)c3)n2n1]",41.5,93%,88,–,Yes,Yes,No,reversed MDR in A2780-ADR cells,46%,–,–,–,–,–,–
"COc1ccc2c3c([nH]c2c1)[C@H](CC(C)C)N1C(=O)[C@H](CCC(=O)OC(C)(C)C)NC(=O)[C@@H]1C3 [Ko143, reference compound]",–,–,–,–,–,–,–,–,–,77.3,70% and 74% and 82% and 83% and 73% and 76% and 85% and 71% and 75% and 84%,102.8,103% and 101% and 106% and 119% and 127% and 112% and 96% and 91% and 87% and 92% and 99%,–,–
"COc1cc2c(cc1OC)CN(CCc1ccc(NC(=O)c3cc(OC)c(OC)cc3NC(=O)c3cnc4ccccc4c3)cc1)CC2 [Tariquidar, reference compound]",–,–,–,–,–,–,–,–,–,55.3,–,–,–,58% and 59%,91
